Test system: P. aeruginosa biofilm
Test: Antibiotic treatment of mature biofilm in perfusion on the centrifugal microfluidic disc, propidium iodide dead/alive biomass by confocal microscopy
Assay type: cell-based
Settings: 72 hours biofilm, after 24 hours of antibiotic perfusion, ciprofloxacin 4 μg/mL
Description: The following is an example of how to set up an experiment using the centrifugal microfluidic disc according to the present disclosure. Initially, the entire system including the microfluidic channels is sterilized. After the sterilization of the disc, the system was filled with a medium and left overnight at a low flow rate (pump set on 0.5 RPM, around 60 μL/min). The inoculation of the bacteria in the sterilized disc was achieved by addition of 40 μL overnight culture of 1:100 diluted P. aeruginosa though the inoculation channel situated in close proximity to the cell culture chamber (see FIG. 30). During inoculation, the loading opening was closed to create a back-pressure avoiding bacteria occlusion in the serpentine channel. The adhesion of the bacteria in the culture chamber was carried out in stop flow for one hour, followed by rotation at the set frequency. The total volume of the cell chamber is around 55 μL and only 40 μL of PAO1 was inoculated in order to prevent the introduction of bacteria in the inlet channel. The inoculation in the flow system was achieved by stopping the pump and adding 250 μL overnight culture of 1:100 diluted P. aeruginosa in the selected channels in proximity of the flow chamber. It was important to clamp the silicone tubes which were feeding the channels in order to avoid a back flow. […]

O=C(O)c1cn(C2CC2)c2cc(N3CCNCC3)c(F)cc2c1=O [antibiotic, Ciprofloxacin]
bacteria dead after antibiotic perfusion (flow rate 0.3 μL/min): around 70%
bacteria dead after antibiotic perfusion (flow rate 1 μL/min): around 50%
